The values below come from patent US12064514B2, “Ultrasound-sensitive peptide particles for spatially resolved molecule delivery” (The Penn State Research Foundation, priority 2017, dated 2024).

Series [1] relates to green fluorescent protein (GFP). In words: screening of fluorine-containing cargo solubilizing agents for GFP dispersion in perfluorocarbon. Conditions: for GFP dispersion efficiency: in PFH, after resuspension in aqueous buffer.
Method: For each condition, 200 ul of compounds+PFH was aliquoted into an Eppendorf tube containing individually dried GFP stocks (1 uM) for 9 replicates. Each tube was parafilmed, vortexed, placed on VWR tube rotator overnight at 4° C., and then centrifuged for 5 min at 4000 rpm. Next, 100 ul of each sample was aliquoted onto a black bottom 96-well plate for fluorescence scan from 500 to 560. The 96-well plate was then placed in 37° C. overnight to dry the PFH. The dry samples were resuspended in 100 ul PBS and scanned for fluorescence using BioTek Cytation 3 imaging reader. […] Here, PFH is used as a surrogate for the penultimate solvent perfluoro-n-pentane (PFP) used to form the peptisome core, as PFP has a low boiling point and low surface tension, making it difficult to use in these screening experiments.
Fluorine-containing cargo solubilizing agent #6 (perfluorononanoic acid, PNFA) was dissolved at various concentrations in PFH to achieve molar ratios with GFP at 400:1 to 50,000:1 fluorine-containing cargo solubilizing agent-to-GFP. For this molar ratio screening, PFNA was vortexed and sonicated to dissolve into PFH at 0.4, 2, 50, and 100 mM. For each condition, 200 ul of PFNA+PFH was aliquoted into an Eppendorf tube containing individually dried GFP (1 uM) for 9 replicates. Each tube was parafilmed, vortexed, placed on VWR tube rotator overnight at 4° C., and then centrifuged for 5 min at 4000 rpm. Next, 100 ul of each sample was aliquoted onto a black bottom 96-well plate for fluorescence scan from 500 to 560. The 96-well plate was then placed in 37° C. overnight to dry the PFH. The dry samples were resuspended in 100 ul PBS and scanned for fluorescence using BioTek Cytation 3 imaging reader.
For PFH and PFP solvent comparison, 2 mM PFNA was vortexed and sonicated to dissolve into either PFH or PFP on ice. For each condition, 200 ul of adjuvant/PFH or adjuvant/PFP was aliquoted into an Eppendorf tube containing individually dried GFP stocks (1 uM) for 3 replicates. Each tube was parafilmed, vortexed, placed on VWR tube rotator overnight at 4° C., and then centrifuged for 5 min at 4000 rpm. Next, 100 ul of each sample was aliquoted onto a black bottom 96-well plate for fluorescence scan from 500 to 560. The 96-well plate was then placed in 37° C. overnight to dry the PFH and PFP.
The target in a further series is αVβ3 integrin (Homo sapiens, UniProt P05106+P06756). As to conditions: read-out: binding affinity to αVβ3 integrin (IC50, conc. at which 50% of receptor is bound by ligand); cited from earlier work.
αVβ3 integrin, sequence (P06756 31-1048): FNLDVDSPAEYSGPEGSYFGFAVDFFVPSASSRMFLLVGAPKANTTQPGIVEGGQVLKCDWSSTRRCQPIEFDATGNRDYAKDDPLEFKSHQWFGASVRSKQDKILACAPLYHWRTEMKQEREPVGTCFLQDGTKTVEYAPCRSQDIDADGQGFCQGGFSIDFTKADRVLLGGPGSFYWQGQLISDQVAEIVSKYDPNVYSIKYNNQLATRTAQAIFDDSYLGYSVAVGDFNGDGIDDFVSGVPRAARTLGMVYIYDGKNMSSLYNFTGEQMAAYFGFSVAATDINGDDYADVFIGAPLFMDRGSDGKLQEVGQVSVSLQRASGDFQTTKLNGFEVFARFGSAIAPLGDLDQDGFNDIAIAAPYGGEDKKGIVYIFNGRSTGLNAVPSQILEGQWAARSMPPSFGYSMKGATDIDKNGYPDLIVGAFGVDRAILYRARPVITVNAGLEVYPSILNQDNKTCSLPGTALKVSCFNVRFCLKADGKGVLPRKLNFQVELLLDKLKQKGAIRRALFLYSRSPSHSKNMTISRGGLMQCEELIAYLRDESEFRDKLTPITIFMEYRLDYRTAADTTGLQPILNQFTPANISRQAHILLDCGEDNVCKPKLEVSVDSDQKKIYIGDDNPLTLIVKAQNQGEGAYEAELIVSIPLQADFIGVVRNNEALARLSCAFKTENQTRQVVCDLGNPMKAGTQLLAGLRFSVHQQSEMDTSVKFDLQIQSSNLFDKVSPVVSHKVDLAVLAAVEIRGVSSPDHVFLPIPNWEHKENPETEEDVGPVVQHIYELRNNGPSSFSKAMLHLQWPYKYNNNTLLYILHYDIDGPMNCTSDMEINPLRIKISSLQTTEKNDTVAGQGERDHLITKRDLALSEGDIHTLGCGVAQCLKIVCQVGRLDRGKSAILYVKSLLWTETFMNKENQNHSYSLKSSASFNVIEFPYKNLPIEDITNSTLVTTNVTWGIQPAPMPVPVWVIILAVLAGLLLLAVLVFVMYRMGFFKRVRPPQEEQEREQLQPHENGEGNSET
αVβ3 integrin, sequence (P05106 27-788): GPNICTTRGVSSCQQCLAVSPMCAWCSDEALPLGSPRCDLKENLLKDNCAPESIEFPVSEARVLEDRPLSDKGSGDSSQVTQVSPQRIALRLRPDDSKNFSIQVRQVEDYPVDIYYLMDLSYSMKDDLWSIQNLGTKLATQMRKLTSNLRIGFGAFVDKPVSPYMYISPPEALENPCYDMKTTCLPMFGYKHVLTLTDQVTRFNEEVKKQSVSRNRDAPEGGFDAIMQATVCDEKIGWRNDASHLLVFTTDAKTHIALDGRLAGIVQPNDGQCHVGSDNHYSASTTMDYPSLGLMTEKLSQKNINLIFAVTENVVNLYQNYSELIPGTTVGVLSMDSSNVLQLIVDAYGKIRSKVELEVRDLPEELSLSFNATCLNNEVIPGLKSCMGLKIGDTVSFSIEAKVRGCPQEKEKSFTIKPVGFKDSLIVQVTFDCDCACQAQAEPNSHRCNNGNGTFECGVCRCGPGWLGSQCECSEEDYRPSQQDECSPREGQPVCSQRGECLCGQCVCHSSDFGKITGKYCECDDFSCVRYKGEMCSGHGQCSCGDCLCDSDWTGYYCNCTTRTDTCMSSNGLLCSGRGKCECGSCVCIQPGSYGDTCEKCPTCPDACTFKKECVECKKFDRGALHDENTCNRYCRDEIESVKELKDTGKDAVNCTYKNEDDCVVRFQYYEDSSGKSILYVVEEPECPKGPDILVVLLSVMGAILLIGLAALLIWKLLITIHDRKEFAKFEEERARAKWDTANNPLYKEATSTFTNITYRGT

Take `O=C(O)C(F)(F)C(F)(F)C(F)(F)C(F)(F)F` [Compound 5, perfluoropentanoic acid]: in series [1], the GFP dispersion efficiency amounted to 4.3%. By IC50 is commonly meant the concentration at which inhibition is half-maximal. Take GRGDTP: the IC50 on αVβ3 integrin was 28 ± 5 nM. In series [1], `FC(F)(F)C(F)(F)C(F)(F)C(F)(F)C(F)(F)C(F)(F)C(F)(F)C(F)(F)C(F)(F)C(F)(F)C(F)(F)C(F)(F)C(F)(F)C(F)(F)F` [Compound 2, perfluoroteradecane] displayed a GFP dispersion efficiency of 5.1%.

Turning to `O=C(O)C(F)(F)C(F)(F)C(F)(F)C(F)(F)C(F)(F)C(F)(F)C(F)(F)C(F)(F)F` [Compound 6, perfluorononanoic acid], in series [1], the “protein dispersed within PFH compared to compound 5” value is “approximately 10 fold” and the GFP dispersion efficiency was determined as 39.3%. The “protein dispersion with PFP compared to PFH” value in series [1] (2000:1 molar ratio) is given as “no significant difference”. In addition, the “total GFP loading efficiency into PFH” value in series [1] (molar ratios of 2,000 to 10,000:1 agent-to-GFP) was ~63%. In the case of GRGDS, the concentration for half-maximal inhibition (IC50) at αVβ3 integrin was 28 ± 3 nM. In the case of GRGDSPK, the IC50 at αVβ3 integrin was 12.2 ± 0.1 nM. For GRGDNP, on αVβ3 integrin, the IC50 is 45 ± 12 nM. For RGDS, on αVβ3 integrin, the half-inhibitory concentration (IC50) was 45 ± 5 nM. With RGD, the IC50 at αVβ3 integrin was 89 ± 12 nM. In the case of GRGD, the IC50 at αVβ3 integrin is 55 ± 7 nM.
